Data: ChEMBL document CHEMBL1151127, “Studies of Swedish Marine Organisms, Part X. Biologically Active Compounds from the Marine Sponge Geodia baretti” (1988)

How the values were obtained:
Ileum [1] = assay: Contractile activity in guinea pig ileum at 67 ug/ml relative to histamine; type: functional, Cavia porcellus
Ileum [2] = assay: Inhibition of electrically-stimulated contraction in guinea pig ileum at 67 ug/ml; type: functional; details: Cavia porcellus
Ileum [3] = assay: Contractile activity in guinea pig ileum at 232 ug/ml relative to histamine; type: functional, Cavia porcellus
Ileum [4] = assay: Inhibition of electrically-stimulated contraction in guinea pig ileum at 232 ug/ml; type: functional; details: Cavia porcellus
Ileum [5] = assay: Inhibition of electrically-stimulated contraction in guinea pig ileum at 50 ug/ml; type: functional; details: Cavia porcellus
Ileum [6] = assay: Contractile activity in guinea pig ileum at 50 ug/ml relative to histamine; type: functional, Cavia porcellus
Ileum [7] = assay: Inhibition of electrically-stimulated contraction in guinea pig ileum at 15 ug/ml; type: functional; details: Cavia porcellus
Ileum [8] = assay: Contractile activity in guinea pig ileum at 15 ug/ml relative to histamine; type: functional, Cavia porcellus
Ileum [9] = assay: Contractile activity in guinea pig ileum at 1200 ug/ml relative to histamine; type: functional, Cavia porcellus
Ileum [10] = assay: Inhibition of electrically-stimulated contraction in guinea pig ileum at 1200 ug/ml; type: functional; details: Cavia porcellus
Ileum [11] = assay: Inhibition of electrically-stimulated contraction in guinea pig ileum at 200 ug/ml; type: functional; details: Cavia porcellus
Ileum [12] = assay: Contractile activity in guinea pig ileum at 200 ug/ml relative to histamine; type: functional, Cavia porcellus

Cn1c(=N)ccn([C@@H]2O[C@H](CO)[C@@H](O)[C@H]2O)c1=O
Activity (Ileum [1]): 60% | inhibition at 67 µg/mL (Ileum [2]): 0%

Cn1c(=N)ccn([C@H]2C[C@H](O)[C@@H](CO)O2)c1=O
Activity (Ileum [3]): 60% | inhibition at 232 µg/mL (Ileum [4]): 0%

Cn1c(=O)ccn([C@H]2C[C@H](O)[C@@H](CO)O2)c1=O
inhibition at 50 µg/mL (Ileum [5]): 0% | Activity (Ileum [6]): 0%

Nc1ncnc2c1ncn2[C@@H]1O[C@H](CO)[C@@H](O)[C@H]1O [ADENOSINE]
inhibition at 15 µg/mL (Ileum [7]): 85% | Activity (Ileum [8]): 0%

N=C(N)NCCC[C@@H]1NC(=O)/C(=C/c2c[nH]c3cc(Br)ccc23)NC1=O [BARETTIN]
inhibition at 15 µg/mL (Ileum [7]): 62% | Activity (Ileum [8]): 0%

Nc1ccn([C@@H]2O[C@H](CO)[C@@H](O)[C@H]2O)c(=O)n1 [CYTIDINE]
Activity (Ileum [9]): 0% | inhibition at 1200 µg/mL (Ileum [10]): 0%

Nc1ccn([C@H]2C[C@H](O)[C@@H](CO)O2)c(=O)n1 [DOXECITINE]
Activity (Ileum [9]): 0% | inhibition at 1200 µg/mL (Ileum [10]): 27%

O=c1[nH]cnc2c1ncn2[C@@H]1O[C@H](CO)[C@@H](O)[C@H]1O [INOSINE]
inhibition at 200 µg/mL (Ileum [11]): 23% | Activity (Ileum [12]): 0%

O=c1ccn([C@@H]2O[C@H](CO)[C@@H](O)[C@H]2O)c(=O)[nH]1 [URIDINE]
Activity (Ileum [9]): 0% | inhibition at 1200 µg/mL (Ileum [10]): 83%
